# Test results published in paper PMC8155022 (Scientific Reports, 2021).
# Where “and” joins values, the source holds several entries; their conditions need not be identical. Identical values can stand only once. Entries after “also recorded” stand apart in the source; their conditions may differ. Like-named read-outs stand apart in the source and are kept apart here.
# Columns and labels:
# FXR = target: T1, FXR (Homo sapiens, UniProt Q96RI1); experiment: nuclear receptor cellular GAL4 reporter assay; format: cell-based; details: agonist and antagonist mode; read-out: potency in agonist and antagonist mode
# T1 construct: expressed in transfected cells
# MR = target: T2, MR (Homo sapiens, UniProt P08235); experiment: nuclear receptor cellular GAL4 reporter assay; format: cell-based; details: agonist and antagonist mode; read-out: potency in agonist and antagonist mode
# T2 construct: expressed in transfected cells
# AR = target: T3, AR (Homo sapiens, UniProt P10275); experiment: nuclear receptor cellular GAL4 reporter assay; format: cell-based; details: agonist and antagonist mode; read-out: potency in agonist and antagonist mode
# T3 construct: expressed in transfected cells
# A1 (h) = target: T4, A1 (h) (Homo sapiens, UniProt P30542); experiment: Cerep panel; format: binding
# T4 construct: purchased Cerep (receptors, ion channels, transporters); Eurofins Panlabs (kinases)
# Description: (§2) A panel of 52 different receptors, ion channels and transporters was tested by Cerep, Inc. (Redmond, WA).
# CCKA (h) (CCK1) = target: T5, CCKA (h) (CCK1) (Homo sapiens, UniProt P32238); experiment: Cerep panel; format: binding
# T5 construct: purchased Cerep (receptors, ion channels, transporters); Eurofins Panlabs (kinases)
# Description: as §2
# M1 (h) = target: T6, M1 (h) (Homo sapiens, UniProt P11229); experiment: Cerep panel; format: binding
# T6 construct: purchased Cerep (receptors, ion channels, transporters); Eurofins Panlabs (kinases)
# Description: as §2
# Y2 (h) = target: T7, Y2 (h) (Homo sapiens, UniProt P49146); experiment: Cerep panel; format: binding
# T7 construct: purchased Cerep (receptors, ion channels, transporters); Eurofins Panlabs (kinases)
# Description: as §2
# delta 2 (h) (DOP) = target: T8, delta 2 (h) (DOP) (Homo sapiens, UniProt P41143); experiment: Cerep panel; format: binding
# T8 construct: purchased Cerep (receptors, ion channels, transporters); Eurofins Panlabs (kinases)
# Description: as §2
# ORL1 (h) (NOP) = target: T9, ORL1 (h) (NOP) (Homo sapiens, UniProt P41146); experiment: Cerep panel; format: binding
# T9 construct: purchased Cerep (receptors, ion channels, transporters); Eurofins Panlabs (kinases)
# Description: as §2
# 5-HT7 (h) = target: T10, 5-HT7 (h) (Homo sapiens, UniProt P34969); experiment: Cerep panel; format: binding
# T10 construct: purchased Cerep (receptors, ion channels, transporters); Eurofins Panlabs (kinases)
# T10 sequence (P34969 whole entry): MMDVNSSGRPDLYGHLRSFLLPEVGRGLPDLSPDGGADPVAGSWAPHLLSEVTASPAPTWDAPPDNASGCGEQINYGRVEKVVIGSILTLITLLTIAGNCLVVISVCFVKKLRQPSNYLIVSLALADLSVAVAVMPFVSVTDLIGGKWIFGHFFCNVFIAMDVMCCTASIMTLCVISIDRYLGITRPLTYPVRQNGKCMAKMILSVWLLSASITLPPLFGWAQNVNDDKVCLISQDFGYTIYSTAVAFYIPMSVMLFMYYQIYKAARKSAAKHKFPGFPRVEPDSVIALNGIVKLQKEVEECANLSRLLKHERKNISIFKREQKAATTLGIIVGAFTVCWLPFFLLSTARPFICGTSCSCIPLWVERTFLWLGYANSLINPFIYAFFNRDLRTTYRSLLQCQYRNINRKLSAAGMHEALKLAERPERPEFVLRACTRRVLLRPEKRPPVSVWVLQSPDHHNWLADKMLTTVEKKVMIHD
# Description: as §2
# V1a (h) = target: T11, V1a (h) (Homo sapiens, UniProt P37288); experiment: Cerep panel; format: binding
# T11 construct: purchased Cerep (receptors, ion channels, transporters); Eurofins Panlabs (kinases)
# Description: as §2
# 5-HT-T = target: T12, 5-HT-T (Homo sapiens, UniProt P31645); experiment: Cerep panel; format: binding
# T12 construct: purchased Cerep (receptors, ion channels, transporters); Eurofins Panlabs (kinases)
# T12 sequence (P31645 whole entry): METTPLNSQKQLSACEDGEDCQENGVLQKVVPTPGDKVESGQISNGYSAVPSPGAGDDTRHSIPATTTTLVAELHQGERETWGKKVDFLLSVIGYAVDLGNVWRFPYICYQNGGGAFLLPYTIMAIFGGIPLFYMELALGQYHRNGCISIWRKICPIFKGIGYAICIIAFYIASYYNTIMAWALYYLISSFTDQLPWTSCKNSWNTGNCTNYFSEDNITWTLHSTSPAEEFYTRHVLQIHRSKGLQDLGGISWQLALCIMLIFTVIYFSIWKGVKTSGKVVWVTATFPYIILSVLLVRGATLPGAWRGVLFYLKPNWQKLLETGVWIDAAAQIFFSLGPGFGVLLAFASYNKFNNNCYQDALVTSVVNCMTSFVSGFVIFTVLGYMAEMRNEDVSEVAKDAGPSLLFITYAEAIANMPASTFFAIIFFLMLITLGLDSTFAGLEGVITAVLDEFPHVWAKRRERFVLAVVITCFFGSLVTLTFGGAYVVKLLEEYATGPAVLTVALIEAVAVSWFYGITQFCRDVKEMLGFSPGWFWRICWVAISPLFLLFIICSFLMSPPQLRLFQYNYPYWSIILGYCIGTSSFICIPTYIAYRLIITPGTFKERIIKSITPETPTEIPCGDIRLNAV
# Description: (§3) 28 GPCRs were evaluated through cAMP or calcium FLIPR assays[67]. A panel of 52 different receptors, ion channels and transporters was tested by Cerep, Inc. (Redmond, WA).
# 5HT1B = 5HT1B (Homo sapiens, UniProt P28222); experiment: GPCR panel, cAMP or calcium FLIPR assays; format: cell-based
# Chain of 5HT1B (P28222 whole entry, species assumed): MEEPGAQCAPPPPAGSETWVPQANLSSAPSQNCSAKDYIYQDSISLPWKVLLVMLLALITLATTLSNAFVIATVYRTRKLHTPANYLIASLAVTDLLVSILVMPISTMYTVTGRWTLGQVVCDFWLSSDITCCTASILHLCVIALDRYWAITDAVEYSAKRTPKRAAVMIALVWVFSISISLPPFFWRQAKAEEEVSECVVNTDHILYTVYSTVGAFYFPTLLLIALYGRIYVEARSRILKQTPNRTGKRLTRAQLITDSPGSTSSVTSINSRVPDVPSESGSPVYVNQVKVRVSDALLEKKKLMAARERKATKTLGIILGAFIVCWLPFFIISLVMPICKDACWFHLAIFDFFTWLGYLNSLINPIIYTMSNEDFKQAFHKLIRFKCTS
# Description: as §3
# ADRA2C = ADRA2C (Homo sapiens, UniProt P18825); experiment: GPCR panel, cAMP or calcium FLIPR assays; format: cell-based
# Chain of ADRA2C (P18825 whole entry, species assumed): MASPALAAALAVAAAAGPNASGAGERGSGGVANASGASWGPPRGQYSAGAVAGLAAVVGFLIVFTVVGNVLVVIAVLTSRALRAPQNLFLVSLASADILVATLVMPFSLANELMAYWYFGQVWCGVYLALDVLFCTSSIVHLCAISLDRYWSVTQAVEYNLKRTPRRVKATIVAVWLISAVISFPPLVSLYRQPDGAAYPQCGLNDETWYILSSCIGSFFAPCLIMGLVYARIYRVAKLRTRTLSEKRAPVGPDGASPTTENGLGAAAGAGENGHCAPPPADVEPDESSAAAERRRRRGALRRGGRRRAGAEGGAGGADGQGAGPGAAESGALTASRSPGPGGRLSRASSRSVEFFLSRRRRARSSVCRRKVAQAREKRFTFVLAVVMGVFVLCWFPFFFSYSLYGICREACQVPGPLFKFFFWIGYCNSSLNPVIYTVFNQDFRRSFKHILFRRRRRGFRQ
# Description: (§4) 28 GPCRs were evaluated through cAMP or calcium FLIPR assays[67].
# AT1 = AT1 (Homo sapiens, UniProt P30556); experiment: GPCR panel, cAMP or calcium FLIPR assays; format: cell-based
# Description: as §4
# ETA = ETA (Homo sapiens, UniProt P25101); experiment: GPCR panel, cAMP or calcium FLIPR assays; format: cell-based
# Description: as §4
# M2 = M2 (Homo sapiens, UniProt P08172); experiment: GPCR panel, cAMP or calcium FLIPR assays; format: cell-based
# Chain of M2 (P08172 whole entry): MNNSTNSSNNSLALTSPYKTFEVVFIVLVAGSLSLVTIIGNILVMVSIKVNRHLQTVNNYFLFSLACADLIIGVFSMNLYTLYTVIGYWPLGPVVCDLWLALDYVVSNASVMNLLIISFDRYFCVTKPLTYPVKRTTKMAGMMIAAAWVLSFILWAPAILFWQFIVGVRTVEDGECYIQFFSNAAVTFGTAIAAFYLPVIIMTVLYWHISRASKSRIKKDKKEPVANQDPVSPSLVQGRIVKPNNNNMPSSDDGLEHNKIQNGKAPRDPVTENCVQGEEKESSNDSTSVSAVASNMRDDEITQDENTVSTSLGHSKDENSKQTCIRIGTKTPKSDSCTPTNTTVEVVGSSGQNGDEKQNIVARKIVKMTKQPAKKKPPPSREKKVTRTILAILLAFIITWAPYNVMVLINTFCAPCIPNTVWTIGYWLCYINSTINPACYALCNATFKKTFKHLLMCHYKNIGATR
# Description: as §4
# V1A = V1A (Homo sapiens, UniProt P37288); experiment: GPCR panel, cAMP or calcium FLIPR assays; format: cell-based
# Description: 28 GPCRs were evaluated through cAMP or calcium FLIPR assays[67]. A panel of 52 different receptors, ion channels and transporters was tested by Cerep, Inc. (Redmond, WA). Kinase selectivity was conducted by Eurofins Panlabs Inc (St Charles, MO).
# Aurora-A(h) = target: T13, Aurora-A(h) (Homo sapiens, UniProt O14965); experiment: Kinase panel; format: biochemical
# T13 construct: purchased Cerep (receptors, ion channels, transporters); Eurofins Panlabs (kinases)
# T13 sequence (O14965 whole entry): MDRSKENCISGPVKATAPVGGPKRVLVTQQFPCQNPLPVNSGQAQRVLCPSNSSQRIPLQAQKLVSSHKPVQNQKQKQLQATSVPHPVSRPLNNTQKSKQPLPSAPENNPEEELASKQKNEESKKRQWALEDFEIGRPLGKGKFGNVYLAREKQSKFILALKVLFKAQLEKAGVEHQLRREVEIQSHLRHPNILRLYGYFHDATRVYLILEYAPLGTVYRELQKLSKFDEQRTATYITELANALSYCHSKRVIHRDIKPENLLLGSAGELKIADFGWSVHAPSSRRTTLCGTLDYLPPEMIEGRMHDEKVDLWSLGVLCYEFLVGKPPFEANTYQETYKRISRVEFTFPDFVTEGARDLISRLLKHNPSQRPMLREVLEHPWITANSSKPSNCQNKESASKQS
# Description: (§5) Kinase selectivity was conducted by Eurofins Panlabs Inc (St Charles, MO).
# Blk(h) = target: T14, Blk(h) (Homo sapiens, UniProt P51451); experiment: Kinase panel; format: biochemical
# T14 construct: purchased Cerep (receptors, ion channels, transporters); Eurofins Panlabs (kinases)
# Description: as §5
# CaMKIδ(h) = target: T15, CaMKIδ(h) (Homo sapiens, UniProt Q8IU85); experiment: Kinase panel; format: biochemical
# T15 construct: purchased Cerep (receptors, ion channels, transporters); Eurofins Panlabs (kinases)
# Description: as §5
# CK2(h) = target: T16, CK2(h) (Homo sapiens, UniProt P68400); experiment: Kinase panel; format: biochemical
# T16 construct: purchased Cerep (receptors, ion channels, transporters); Eurofins Panlabs (kinases)
# T16 sequence (P68400 whole entry): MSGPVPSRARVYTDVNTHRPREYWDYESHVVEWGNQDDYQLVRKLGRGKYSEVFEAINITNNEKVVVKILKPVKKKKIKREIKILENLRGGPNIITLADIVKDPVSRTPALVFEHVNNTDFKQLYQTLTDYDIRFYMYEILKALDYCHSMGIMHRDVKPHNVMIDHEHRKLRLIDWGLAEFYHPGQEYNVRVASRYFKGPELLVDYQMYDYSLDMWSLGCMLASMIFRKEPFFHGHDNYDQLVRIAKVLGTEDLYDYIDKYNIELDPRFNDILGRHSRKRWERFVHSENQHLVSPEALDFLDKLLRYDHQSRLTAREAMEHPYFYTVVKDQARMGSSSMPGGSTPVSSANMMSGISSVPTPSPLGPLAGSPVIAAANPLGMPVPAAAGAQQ
# T16 sequence (P67870 whole entry partner): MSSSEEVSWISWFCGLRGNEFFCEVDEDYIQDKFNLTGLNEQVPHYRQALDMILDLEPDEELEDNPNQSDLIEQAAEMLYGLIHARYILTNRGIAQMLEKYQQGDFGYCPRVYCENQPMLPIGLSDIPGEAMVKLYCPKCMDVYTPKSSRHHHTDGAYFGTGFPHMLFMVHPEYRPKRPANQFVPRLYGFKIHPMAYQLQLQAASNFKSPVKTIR
# Description: as §5
# CLK2(h) = target: T17, CLK2(h) (Homo sapiens, UniProt P49760); experiment: Kinase panel; format: biochemical
# T17 construct: purchased Cerep (receptors, ion channels, transporters); Eurofins Panlabs (kinases)
# Description: as §5
# JAK3(h) = target: T18, JAK3(h) (Homo sapiens, UniProt P52333); experiment: Kinase panel; format: biochemical
# T18 construct: purchased Cerep (receptors, ion channels, transporters); Eurofins Panlabs (kinases)
# T18 sequence (P52333 whole entry): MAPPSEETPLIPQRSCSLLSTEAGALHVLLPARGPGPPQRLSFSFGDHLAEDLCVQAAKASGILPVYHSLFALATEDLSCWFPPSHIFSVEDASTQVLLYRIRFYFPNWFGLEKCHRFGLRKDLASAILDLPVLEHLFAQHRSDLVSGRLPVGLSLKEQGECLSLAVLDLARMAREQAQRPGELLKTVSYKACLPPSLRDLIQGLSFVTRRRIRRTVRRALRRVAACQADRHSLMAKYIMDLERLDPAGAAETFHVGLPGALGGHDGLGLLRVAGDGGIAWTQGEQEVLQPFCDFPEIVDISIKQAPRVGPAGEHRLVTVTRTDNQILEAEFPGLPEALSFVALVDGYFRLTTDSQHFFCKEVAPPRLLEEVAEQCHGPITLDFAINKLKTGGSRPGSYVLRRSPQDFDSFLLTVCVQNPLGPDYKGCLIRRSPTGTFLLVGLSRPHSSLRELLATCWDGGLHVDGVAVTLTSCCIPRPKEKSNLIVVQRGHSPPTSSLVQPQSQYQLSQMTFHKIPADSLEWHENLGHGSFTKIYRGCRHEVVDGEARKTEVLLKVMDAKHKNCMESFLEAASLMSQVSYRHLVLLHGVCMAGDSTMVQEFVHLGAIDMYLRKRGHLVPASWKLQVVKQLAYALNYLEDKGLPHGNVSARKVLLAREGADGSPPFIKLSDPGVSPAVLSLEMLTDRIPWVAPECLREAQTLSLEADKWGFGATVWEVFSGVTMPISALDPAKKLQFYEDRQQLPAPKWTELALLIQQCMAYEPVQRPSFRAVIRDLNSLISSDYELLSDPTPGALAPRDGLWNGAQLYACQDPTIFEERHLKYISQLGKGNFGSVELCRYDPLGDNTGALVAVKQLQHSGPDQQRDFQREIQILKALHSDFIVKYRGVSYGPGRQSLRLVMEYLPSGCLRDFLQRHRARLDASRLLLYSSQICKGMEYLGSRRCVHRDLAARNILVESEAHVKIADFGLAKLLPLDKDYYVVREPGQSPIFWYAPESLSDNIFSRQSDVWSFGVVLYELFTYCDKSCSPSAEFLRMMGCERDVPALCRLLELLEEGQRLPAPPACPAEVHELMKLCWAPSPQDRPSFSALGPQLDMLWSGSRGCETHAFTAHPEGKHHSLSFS
# Description: as §5
# PDGFRβ(h) = target: T19, PDGFRβ(h) (Homo sapiens, UniProt P09619); experiment: Kinase panel; format: biochemical
# T19 construct: purchased Cerep (receptors, ion channels, transporters); Eurofins Panlabs (kinases)
# Description: as §5
# Pim-2(h) = target: T20, Pim-2(h) (Homo sapiens, UniProt Q9P1W9); experiment: Kinase panel; format: biochemical
# T20 construct: purchased Cerep (receptors, ion channels, transporters); Eurofins Panlabs (kinases)
# T20 sequence (Q9P1W9 whole entry): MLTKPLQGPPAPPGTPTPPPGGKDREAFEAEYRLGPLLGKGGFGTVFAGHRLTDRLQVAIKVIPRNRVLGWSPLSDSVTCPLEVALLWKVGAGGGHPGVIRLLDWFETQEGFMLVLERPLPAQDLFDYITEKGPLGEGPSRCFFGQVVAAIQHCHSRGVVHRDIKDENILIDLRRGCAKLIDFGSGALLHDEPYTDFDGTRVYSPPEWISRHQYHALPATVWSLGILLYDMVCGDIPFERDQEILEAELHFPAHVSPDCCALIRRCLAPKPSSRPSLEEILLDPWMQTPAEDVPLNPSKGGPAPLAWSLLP
# Description: as §5
# PKBα(h) = target: T21, PKBα(h) (Homo sapiens, UniProt P31749); experiment: Kinase panel; format: biochemical
# T21 construct: purchased Cerep (receptors, ion channels, transporters); Eurofins Panlabs (kinases)
# Description: as §5
# Rsk3(h) = target: T22, Rsk3(h) (Homo sapiens, UniProt Q15349); experiment: Kinase panel; format: biochemical
# T22 construct: purchased Cerep (receptors, ion channels, transporters); Eurofins Panlabs (kinases)
# Description: as §5
# [1] = tested on: ex vivo stimulated IL-17A production in the blood; experiment: mouse PK/PD model, ex vivo stimulated IL-17A production; details: 100 mg/kg oral; for inhibition at 100 mg/kg: 5-fold diluted blood
# Description: (§1) Compound concentrations are also listed as undiluted (measured) and diluted (extrapolated) in Supplementary Table S2.
# [2] = mouse PK/PD model, plasma exposure; format: in vivo; details: female, C57B6, mouse, 100 mg/kg oral
# Description: as §1
# [3] = tested on: human CD4+ T cells under Th1 conditions; experiment: in vitro human Th1 differentiation, IFNγ production
# Description: On day 4, supernatants were analyzed for IL-17A, IL-17F, IL-22 and IFNγ production.
# Total CD4^+ T cells were isolated from peripheral blood mononuclear cells (PBMCs) of healthy donors using a CD4^+ T cell Isolation Kit II (Miltenyl Biotec, Auburn, CA), following the manufacturer’s instructions.
# In vitro human Th17 and Th1 differentiation
# Total CD4+ T cells were isolated from the peripheral blood mononuclear cells (PBMCs) of healthy donors
# using a CD4+ T cell Isolation Kit II (Miltenyl Biotec, Auburn, CA), following the manufacturer’s
# instructions. Isolated T cells were resuspended in culture medium and added to a 96-well plate at 1×105
# beads (prepared using human T cell activation/expansion kit, Miltenyi Biotec) at final concentration of
# 3x10^6/mL, and cocktail for either Th17 differentiation (10 µg/mL anti-IL-4, 10 µg/mL anti-IFN, 10 ng/mL
# IL-1β, 10 ng/mL IL-23, 50 ng/mL IL-6, 3 ng/mL TGFβ and 20 U/mL IL-2), or for Th1 differentiation (10
# µg/mL anti-IL-4, 10 ng/mL IL-12, and 20 U/mL IL-2). Cells were cultured at 37°C and 5% CO2 for 3 days.
# Supernatants were assayed for accumulated cytokines using MSD multi-spot assay (Meso Scale
# Discovery, Rockville, MD) or R&D ELISA kit.
# [4] = plasma (5-fold diluted, extrapolated), calculated for 5-fold dilution, read-out: concentration in 5-fold diluted plasma
# [5] = plasma, mean ± SD, n=10, read-out: concentration in undiluted plasma
structure (smiles),measurement,setting,value
CC1CCCN1C(=O)c1nc(C(=O)NCC(C)(C)O)sc1-c1ccc(C(O)(C(F)(F)F)C(F)(F)F)c(Cl)c1Cl (stereo not shown) [JNJ-61803534],IC50,FXR,> 1.5 µM
same,IC50,MR,> 1.5 µM
same,IC50,AR,> 1.5 µM
same,inhibition at 1 µM,A1 (h),< 10%
same,inhibition at 10 µM,A1 (h),< 10%
same,inhibition at 1 µM,CCKA (h) (CCK1),< 10%
same,inhibition at 10 µM,CCKA (h) (CCK1),< 10%
same,inhibition at 1 µM,M1 (h),< 10%
same,inhibition at 10 µM,M1 (h),< 10%
same,inhibition at 1 µM,Y2 (h),< 10%
same,inhibition at 10 µM,Y2 (h),< 10%
same,inhibition at 1 µM,delta 2 (h) (DOP),< 10%
same,inhibition at 10 µM,delta 2 (h) (DOP),< 10%
same,inhibition at 1 µM,ORL1 (h) (NOP),< 10%
same,inhibition at 10 µM,ORL1 (h) (NOP),< 10%
same,inhibition at 1 µM,5-HT7 (h),< 10%
same,inhibition at 10 µM,5-HT7 (h),< 10%
same,inhibition at 1 µM,V1a (h),< 10%
same,inhibition at 10 µM,V1a (h),20.3%
same,inhibition at 1 µM,5-HT-T,< 10%
same,inhibition at 10 µM,5-HT-T,< 10%
same,EC50,5HT1B; agonist,> 12.5 µM
same,IC50,5HT1B; antagonist,> 12.5 µM
same,EC50,ADRA2C; agonist,> 12.5 µM
same,IC50,ADRA2C; antagonist,> 12.5 µM
same,EC50,AT1; agonist,> 5 µM
same,IC50,AT1; antagonist,> 5 µM
same,EC50,ETA; agonist,> 10 µM
same,IC50,ETA; antagonist,> 10 µM
same,EC50,M2; agonist,> 12.5 µM
same,IC50,M2; antagonist,> 12.5 µM
same,EC50,V1A; agonist,> 10 µM
same,IC50,V1A; antagonist,> 10 µM
same,activity at 1 µM,Aurora-A(h),97%
same,activity at 10 µM,Aurora-A(h),102%
same,activity at 1 µM,Blk(h),95%
same,activity at 10 µM,Blk(h),102%
same,activity at 1 µM,CaMKIδ(h),81%
same,activity at 10 µM,CaMKIδ(h),100%
same,activity at 1 µM,CK2(h),109%
same,activity at 10 µM,CK2(h),102%
same,activity at 1 µM,CLK2(h),108%
same,activity at 10 µM,CLK2(h),99%
same,activity at 1 µM,JAK3(h),109%
same,activity at 10 µM,JAK3(h),114%
same,activity at 1 µM,PDGFRβ(h),103%
same,activity at 10 µM,PDGFRβ(h),143%
same,activity at 1 µM,Pim-2(h),102%
same,activity at 10 µM,Pim-2(h),107%
same,activity at 1 µM,PKBα(h),97%
same,activity at 10 µM,PKBα(h),95%
same,activity at 1 µM,Rsk3(h),107%
same,activity at 10 µM,Rsk3(h),104%
same,inhibition at 100 mg/kg,[1]; 1 h post-dose,86 ± 6.7%
same,inhibition at 100 mg/kg,[1]; 2 h post-dose,89 ± 7.1%
same,inhibition at 100 mg/kg,[1]; 4 h post-dose,72 ± 14%
same,inhibition at 100 mg/kg,[1]; 7 h post-dose,75 ± 7.5%
same,inhibition at 100 mg/kg,[1]; 12 h post-dose,62 ± 17%
same,inhibition at 100 mg/kg,"[1]; 18 h post-dose, without statistical significance",30 ± 60%
same,EC50 at 100 mg/kg,"[1]; concentration in 5-fold diluted plasma, read-out: compound concentration for 50% inhibition of ex vivo IL-17A",0.24 to 0.86 µM
same,concentration at 1 h,[2]; [4],10 ± 2.8 µM
same,concentration at 2 h,[2]; [4],6.1 ± 3.1 µM
same,concentration at 4 h,[2]; [4],5 ± 1.7 µM
same,concentration at 7 h,[2]; [4],2.3 ± 0.5 µM
same,concentration at 12 h,[2]; [4],0.86 ± 0.4 µM
same,concentration at 18 h,[2]; [4],0.24 ± 0.1 µM
same,concentration at 1 h,[2]; [5],31000 ng/mL and 49.8 µM
same,concentration at 2 h,[2]; [5],18900 ng/mL and 30.4 µM
same,concentration at 4 h,[2]; [5],15500 ng/mL and 24.9 µM
same,concentration at 7 h,[2]; [5],11.7 µM and 7280 ng/mL
same,concentration at 12 h,[2]; [5],4.3 µM and 2670 ng/mL
same,concentration at 18 h,[2]; [5],1.2 µM and 759 ng/mL
same,inhibition of IFNγ production,[3],no inhibition; also recorded: did not inhibit
